Test results: article doi:10.1101/2024.01.03.573903v1 (biorxiv, 2024)

Target: T1, ZIKV NS3 helicase (Zika virus, UniProt Q32ZE1)
T1 sequence (Q32ZE1 1673-2115 limits assumed): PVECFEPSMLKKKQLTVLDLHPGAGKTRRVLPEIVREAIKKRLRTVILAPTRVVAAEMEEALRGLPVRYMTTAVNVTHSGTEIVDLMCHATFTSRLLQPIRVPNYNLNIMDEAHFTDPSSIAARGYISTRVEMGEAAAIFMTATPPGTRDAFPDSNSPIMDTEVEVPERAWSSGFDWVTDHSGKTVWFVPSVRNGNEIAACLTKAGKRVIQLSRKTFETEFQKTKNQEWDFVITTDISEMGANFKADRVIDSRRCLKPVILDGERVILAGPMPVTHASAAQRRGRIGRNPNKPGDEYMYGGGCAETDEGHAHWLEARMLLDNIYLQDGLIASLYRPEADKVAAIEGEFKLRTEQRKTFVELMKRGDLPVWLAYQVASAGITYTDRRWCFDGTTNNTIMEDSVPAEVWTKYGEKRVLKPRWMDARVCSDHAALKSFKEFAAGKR
Experiment: malachite green phosphate release NTPase assay
Format: biochemical

**Q.** Which IC50 does the source give for `COc1cc(/C=C/C(=O)CC(=O)/C=C/c2ccc(O)c(OC)c2)ccc1O` [curcumin] here?
**A.** The IC50 was 64.4 µM.
